Test results taken from PubChem BioAssay (NCI).
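Cultured in 96-well plates, cells were exposed to test compound for 48 hours across five concentrations. At the GI50, growth is halved. TGI: concentration producing complete growth inhibition.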

Key:
Experiment in all cases: DTP human tumour cell line panel, 48 h
[1] = system: SF-268 CNS
[2] = system: OVCAR-4 ovarian
[3] = system: COLO 205 colon
[4] = system: TK-10 renal
[5] = system: SK-OV-3 ovarian
[6] = system: UACC-62 melanoma
[7] = system: T-47D breast
[8] = system: LOX IMVI melanoma
[9] = system: SK-MEL-2 melanoma
[10] = system: SK-MEL-5 melanoma
[11] = system: BT-549 breast
[12] = system: SK-MEL-28 melanoma
[13] = system: SNB-19 CNS
[14] = system: CAKI-1 renal
[15] = system: MDA-MB-435
[16] = system: UACC-257 melanoma
[17] = system: MCF7 breast
[18] = system: DU-145 prostate
[19] = system: RPMI-8226 leukemia
[20] = system: NCI-H226 lung
[21] = system: MOLT-4 leukemia
[22] = system: UO-31 renal
[23] = system: HS 578T breast
[24] = system: NCI/ADR-RES ovarian
[25] = system: HT29 colon
[26] = system: HL-60(TB) leukemia
[27] = system: A549 NSCLC
[28] = system: CCRF-CEM leukemia
[29] = system: SF-295 CNS
[30] = system: RXF 393 renal
[31] = system: NCI-H460 lung
[32] = system: HCT-15 colon
[33] = system: HOP-62 NSCLC
[34] = system: IGROV1 ovarian
[35] = system: SN12C renal
[36] = system: SW-620 colon
[37] = system: PC-3 prostate
[38] = system: HCT-116 colon
[39] = system: KM12 colon
[40] = system: OVCAR-5 ovarian
[41] = system: 786-0 renal
[42] = system: HCC-2998 colon
[43] = system: SF-539 CNS
[44] = system: NCI-H522 lung
[45] = system: OVCAR-3 ovarian
[46] = system: EKVX NSCLC
[47] = system: NCI-H23 lung
[48] = system: MDA-MB-231 breast
[49] = system: OVCAR-8 ovarian
[50] = system: M14 melanoma
[51] = system: SNB-75 CNS
[52] = system: K-562 leukemia
[53] = system: HOP-92 NSCLC
[54] = system: A498 renal
[55] = system: ACHN renal
[56] = system: SR leukemia
[57] = system: MALME-3M melanoma
[58] = system: U251 CNS

Nc1cc2c(cc1Br)[nH]c(=O)c1ccccc12
GI50 [1]: 5.9 µM
TGI [1]: 44.9 µM
GI50 [2]: 2.55 µM
TGI [2]: 38.5 µM
GI50 [3]: 3.34 µM
GI50 [4]: 4.27 µM
TGI [4]: 32.7 µM
GI50 [5]: 10.1 µM
TGI [5]: 54.1 µM
GI50 [6]: 6.02 µM
TGI [6]: 20.1 µM
GI50 [7]: 4.22 µM
TGI [7]: 55.8 µM
GI50 [8]: 1.8 µM
TGI [8]: 6.23 µM
GI50 [9]: 3.44 µM
TGI [9]: 11.2 µM
GI50 [10]: 1.46 µM
TGI [10]: 2.79 µM
GI50 [11]: 12.3 µM
TGI [11]: 31.4 µM
GI50 [12]: 4.25 µM
TGI [12]: 15.5 µM
GI50 [13]: 5.25 µM
TGI [13]: 20.2 µM
GI50 [14]: 5.39 µM
TGI [14]: 53.4 µM
GI50 [15]: 1.91 µM
TGI [15]: 3.57 µM
GI50 [16]: 4.13 µM
TGI [16]: 17.1 µM
GI50 [17]: 1.83 µM
TGI [17]: 11.4 µM
GI50 [18]: 2.14 µM
TGI [18]: 4.76 µM
GI50 [19]: 5.19 µM
TGI [19]: 42.3 µM
GI50 [20]: 5.15 µM
TGI [20]: 27.5 µM
GI50 [21]: 4.03 µM
TGI [21]: 43 µM
GI50 [22]: 2.73 µM
TGI [22]: 18.5 µM
GI50 [23]: 3.5 µM
TGI [23]: 28.9 µM
GI50 [24]: 9.25 µM
TGI [24]: 35.1 µM
GI50 [25]: 3.46 µM
TGI [25]: 10.8 µM
GI50 [26]: 10.8 µM
TGI [26]: 54.3 µM
GI50 [27]: 2.91 µM
TGI [27]: 11.4 µM
GI50 [28]: 6.82 µM
TGI [28]: 59.5 µM
GI50 [29]: 10.2 µM
TGI [29]: 38.4 µM
GI50 [30]: 4.3 µM
TGI [30]: 21.7 µM
GI50 [31]: 3.66 µM
TGI [31]: 18.5 µM
GI50 [32]: 4.79 µM
TGI [32]: 20.8 µM
GI50 [33]: 3.71 µM
TGI [33]: 13.3 µM
GI50 [34]: 3.61 µM
TGI [34]: 23.1 µM
GI50 [35]: 2.68 µM
TGI [35]: 13.8 µM
GI50 [36]: 7.73 µM
TGI [36]: 29 µM
GI50 [37]: 4.14 µM
TGI [37]: > 100 µM
GI50 [38]: 2.91 µM
TGI [38]: 25.5 µM
GI50 [39]: 3.4 µM
TGI [39]: 11.2 µM
GI50 [40]: 6.91 µM
TGI [40]: 41.1 µM
GI50 [41]: 6.16 µM
TGI [41]: > 100 µM
GI50 [42]: 5.5 µM
TGI [42]: 17.1 µM
GI50 [43]: 15.1 µM
TGI [43]: 49.3 µM
GI50 [44]: 5.47 µM
TGI [44]: 19.8 µM
GI50 [45]: 2.14 µM
TGI [45]: 6.45 µM
GI50 [46]: 4.18 µM
TGI [46]: 35.1 µM
GI50 [47]: 1.8 µM
TGI [47]: 5.29 µM
GI50 [48]: 3.37 µM
TGI [48]: 54.9 µM
GI50 [49]: 3.37 µM
TGI [49]: > 100 µM
GI50 [50]: 2.92 µM
TGI [50]: 10 µM
GI50 [51]: 2.66 µM
TGI [51]: 11.9 µM
GI50 [52]: 5.78 µM
TGI [52]: > 100 µM
GI50 [53]: 3.81 µM
TGI [53]: 41.8 µM
GI50 [54]: 3.91 µM
TGI [54]: 29.8 µM
GI50 [55]: 3.09 µM
TGI [55]: 20.1 µM
GI50 [56]: 5.07 µM
TGI [56]: 47.2 µM
GI50 [57]: 2.17 µM
TGI [57]: 4.78 µM

CCCc1cc(=O)n2c(C(=O)Nc3ccc(Cl)cc3C)c(C(=O)Nc3ccc(F)cc3)sc2n1
GI50 [1]: 6.62 µM
TGI [1]: 24.9 µM
GI50 [2]: 2.57 µM
TGI [2]: 6.25 µM
GI50 [3]: 16.9 µM
TGI [3]: > 150 µM
GI50 [4]: 12.3 µM
TGI [4]: 39.3 µM
GI50 [5]: 12.7 µM
TGI [5]: 52.8 µM
GI50 [6]: 2.02 µM
TGI [6]: 12.1 µM
GI50 [7]: 20 µM
TGI [7]: 132 µM
GI50 [8]: 1.6 µM
TGI [8]: 19.9 µM
GI50 [9]: 4.13 µM
TGI [9]: 21.9 µM
GI50 [10]: 27.1 µM
TGI [10]: > 150 µM
GI50 [11]: 27.7 µM
TGI [11]: 61 µM
GI50 [12]: 8.07 µM
TGI [12]: 46 µM
GI50 [13]: 23.8 µM
TGI [13]: 74.2 µM
GI50 [14]: 7.77 µM
TGI [14]: 42.3 µM
GI50 [15]: 20.9 µM
TGI [15]: > 150 µM
GI50 [16]: 7.56 µM
TGI [16]: 42.4 µM
GI50 [17]: 4.67 µM
TGI [17]: 33.9 µM
GI50 [18]: 9.37 µM
TGI [18]: 33.3 µM
GI50 [19]: 2.7 µM
TGI [19]: 6.88 µM
GI50 [21]: 3.99 µM
TGI [21]: 22.2 µM
GI50 [22]: 7.35 µM
TGI [22]: 30.4 µM
GI50 [23]: 2.27 µM
TGI [23]: 8.55 µM
GI50 [24]: 10.6 µM
TGI [24]: 59.7 µM
GI50 [25]: 12.2 µM
TGI [25]: > 150 µM
GI50 [26]: 1.33 µM
TGI [26]: 23.8 µM
GI50 [27]: 2.63 µM
TGI [27]: 5.95 µM
GI50 [28]: 16.4 µM
TGI [28]: 103 µM
GI50 [58]: 1.51 µM
TGI [58]: 4.37 µM
GI50 [29]: 31.7 µM
TGI [29]: 131 µM
GI50 [30]: 1.17 µM
TGI [30]: 4.46 µM
GI50 [31]: 20.8 µM
TGI [31]: > 150 µM
GI50 [32]: 9.4 µM
TGI [32]: > 150 µM
GI50 [33]: 1.54 µM
TGI [33]: 3.95 µM
GI50 [34]: 9.31 µM
TGI [34]: 33.6 µM
GI50 [36]: 6.45 µM
TGI [36]: 61.4 µM
GI50 [37]: 2.07 µM
TGI [37]: 11 µM
GI50 [38]: 2.53 µM
TGI [38]: > 150 µM
GI50 [39]: 13.5 µM
TGI [39]: > 150 µM
GI50 [40]: 53.9 µM
TGI [40]: > 150 µM
GI50 [41]: 2.36 µM
TGI [41]: 5.96 µM
GI50 [42]: 96.6 µM
TGI [42]: > 150 µM
GI50 [43]: 6.02 µM
TGI [43]: 22.7 µM
GI50 [44]: 9.18 µM
TGI [44]: 67.5 µM
GI50 [45]: 3.35 µM
TGI [45]: 8.33 µM
GI50 [46]: 21.3 µM
TGI [46]: > 150 µM
GI50 [47]: 26.4 µM
TGI [47]: > 150 µM
GI50 [48]: 0.698 µM
TGI [48]: 3.08 µM
GI50 [49]: 2.05 µM
TGI [49]: 5.14 µM
GI50 [50]: 4.67 µM
TGI [50]: 23.7 µM
GI50 [51]: 3.71 µM
TGI [51]: 11.5 µM
GI50 [52]: 1.08 µM
TGI [52]: 20.3 µM
GI50 [53]: 0.166 µM
TGI [53]: 0.989 µM
GI50 [54]: 29.2 µM
TGI [54]: 99.8 µM
GI50 [55]: 3.8 µM
TGI [55]: 13.4 µM
GI50 [56]: 0.943 µM
TGI [56]: 3.75 µM
GI50 [57]: 5.12 µM
TGI [57]: 20.7 µM
